Legend:
[1] = DPPH free radical scavenging (antioxidant) assay; conditions: in-vitro
Method: The synthesized pyrazolone derivatives’ capacity to scavenge free radicals DPPH was assessed using a modified Zheleva-Dimitrova technique. Also, the DPPH radical was investigated to L-ascorbic acid with concentrations (10–100 μM) that serving as the standard positive control and the scavenging percent was calculated by Eq. 1.1 [drawing 1]

[2] = test system: HCT-116, HepG2, and MCF-7; test: MTT assay, whole panel of cancer cell lines (result in words); assay type: cell-based, human; conditions: 48 h, compared with Sorafenib
Excerpt: (§1) Mammary gland (MCF-7;# ATCC HTB-22), colorectal adenocarcinoma (HCT-116; # ATCC CCL-247)), hepatocellular carcinoma (HepG-2; #ATCC HB-8065), and human lung fibroblast (WI-38; # ATCC CCL-75). The ATCC cell line was obtained via the Holding Company for Biological Products and Vaccines (VACSERA), Cairo, Egypt.
(§2) The MTT test was utilized to ascertain the pyrazolone derivatives’ inhibitory effects on cell growth using the aforementioned cell lines. This colorimetric assay is based on the transformation of yellow tetrazolium bromide (MTT) by mitochondrial succinate dehydrogenase in living cells into a purple formazan derivative. The RPMI-1640 medium was supplemented with 10% fetal bovine serum to cultivate cell lines. At 37° C in an incubator with 5% CO2, 100 units/mL of penicillin and 100 µg/mL of streptomycin were introduced as antibiotics. The cell lines were seeded by 1.0 × 10^4 cells/well in a 96-well plate and kept at 37 °C for 24 h with 5% CO2. Following incubation, the cells were subjected to several concentrations of newly synthesized pyrazolone derivatives and left for 48 h incubation.20 µL of a 5 mg/mL MTT solution was added and incubated for 4 h after the drug treatment. To dissolve the purple formazan produced in each well, 100 µL of dimethyl sulfoxide (DMSO) was applied. The colorimetric test is performed at 630 nm absorbance and recorded using a plate reader (EXL 800, USA)[32].
(§3) GraphPad Prism 6 (San Diego, CA) (GraphPad Prism 6, https://www.graphpad.com/scientific-software/prism/) was used to calculate the IC50 values and the data was expressed as mean ± SE.

WI-38 = test: MTT assay, WI-38 normal human lung fibroblast cells; assay type: cell-based; conditions: 48 h, compared with SOR
Excerpt: as §1
as §2, with “Following incubation, the cells were subjected to several concentrations of newly synthesized pyrazolone derivatives and left for 48 h incubation.20 µL of a 5 mg/mL MTT solution was added and incubated for 4 h after the drug treatment. To dissolve the purple formazan produced in each well, 100 µL of dimethyl sulfoxide (DMSO) was applied.” left out
as §3

HCT-116 = test: MTT assay, HCT-116 colorectal adenocarcinoma cells; assay type: cell-based; conditions: Homo sapiens, 48 h, mean ± SE, read-out: IC50 against HCT-116
HepG-2 = test: MTT assay, HepG-2 hepatocellular carcinoma cells; assay type: cell-based; conditions: Homo sapiens, HepG2, 48 h, mean ± SE, read-out: IC50 against HepG-2
MCF-7 = test: MTT assay, MCF-7 mammary gland cells; assay type: cell-based; conditions: Homo sapiens, MCF7, 48 h, mean ± SE, read-out: IC50 against MCF-7
[3] = MTT assay, WI-38 normal human lung fibroblast cells; assay type: cell-based; conditions: human, WI-38 normal lung fibroblast cells
Excerpt: as §1
as §2, with “Following incubation, the cells were subjected to several concentrations of newly synthesized pyrazolone derivatives and left for 48 h incubation.20 µL of a 5 mg/mL MTT solution was added and incubated for 4 h after the drug treatment. To dissolve the purple formazan produced in each well, 100 µL of dimethyl sulfoxide (DMSO) was applied.” left out
as §3

Compound	IC50 [1]	Impact on all panels of cancer cell lines (in words) [2]	Cytotoxic effect on WI-38 normal cells (in words) (WI-38)	melting point	IC50 (HCT-116)	IC50 (HepG-2)	IC50 (MCF-7)	IC50 at 48 h [3]
3-amino-4-((4-(6-(4-(dimethylamino)phenyl)-2-oxo-1,2-dihydropyridine-4-yl)phenyl)diazenyl)-1-phenyl-1H-pyrazole-5(4H)-one [Compound 7]	93.7 ± 0.47 µM	moderate to weak impact						
CN(C)c1ccc(C2CC(c3ccc(N=NC4C(=O)N(c5ccccc5)N=C4N)cc3)=NN2c2ccccc2)cc1 (stereo not drawn) [Compound 4, 3-amino-4-((4-(5-(4-(dimethylamino)phenyl)-1-phenyl-4,5-dihydro-1H-pyrazole-3-yl)phenyl)diazenyl)-1-phenyl-1H-pyrazole-5(4H)-one]	19.88 ± 0.15 µM		no cytotoxic effects	96 °C	7.67 ± 0.5 µM	5.85 ± 0.4 µM	6.97 ± 0.5 µM	
CC(=O)N1N=C(c2ccc(N=NC3C(=O)N(c4ccccc4)N=C3N)cc2)CC1c1ccc(N(C)C)cc1 (stereo not drawn) [Compound 6, 4-((4-(1-acetyl-5-(4-(dimethylamino)phenyl)-4,5-dihydro-1H-pyrazole-3-yl)phenyl)diazenyl)-3-amino-1-phenyl-1H-pyrazole-5(4H)-one]	32.4 ± 0.2 µM			74 °C	16.5 ± 1.3 µM	25.6 ± 1.7 µM	19.8 ± 1.5 µM	
CN(C)c1ccc(-c2cc(-c3ccc(N=NC4C(=O)N(c5ccccc5)N=C4N)cc3)nc(=S)[nH]2)cc1 (stereo not drawn) [Compound 8, 3-amino-4-((4-(6-(4-(dimethylamino)phenyl)-2-thioxo-1,2-dihydropyrimidin-4-yl)phenyl)diazenyl)-1-phenyl-1H-pyrazol-5(4H)-one]	65.54 ± 0.32 µM	moderate to weak impact		103 °C				
CN(C)c1ccc(C2C=C(c3ccc(/N=N/C4C(=O)N(c5ccccc5)N=C4N)cc3)OC(N)=C2C#N)cc1 (stereo not drawn) [Compound 9, (E)-2-amino-6-(4-((3-amino-5-oxo-1-phenyl-4,5-dihydro-1H-pyrazole-4-yl)diazenyl)phenyl)-4-(4-(dimethylamino)phenyl)-4H-pyran-3-carbonitrile]	47.07 ± 0.24 µM	moderate to weak impact		139 °C				
CN(C)c1ccc(-c2cc(-c3ccc(/N=N/C4C(=O)N(c5ccccc5)N=C4N)cc3)nc(N)c2C#N)cc1 (stereo not drawn) [Compound 10, (E)-2-amino-6-(4-((3-amino-5-oxo-1-phenyl-4,5-dihydro-1H-pyrazole-4-yl)diazenyl)phenyl)-4-(4-(dimethylamino)phenyl)nicotinonitrile]	74.3 ± 0.38 µM	moderate to weak impact		116 °C				
CN(C)c1ccc(-c2cc(-c3ccc(/N=N/C4C(=O)N(c5ccccc5)N=C4N)cc3)[nH]c(=O)c2C#N)cc1 (stereo not drawn) [Compound 11, (E)-6-(4-((3-amino-5-oxo-1-phenyl-4,5-dihydro-1H-pyrazol-4-yl)diazenyl)phenyl)-4-(4-(dimethylamino)phenyl)-2-oxo-1,2-dihydropyridine-3-carbonitrile]	53.67 ± 0.29 µM	moderate to weak impact		92 °C				
O=C1O[C@H]([C@@H](O)CO)C(O)=C1O [L-ascorbic acid, reference compound]	16.81 ± 0.1 µM							
CNC(=O)c1cc(Oc2ccc(NC(=O)Nc3ccc(Cl)c(C(F)(F)F)c3)cc2)ccn1 [Sorafenib, reference compound]								20.3 ± 0.45 µM
